Test results as given in ChEMBL document CHEMBL1121781, “Potential antitumor agents. 34. Quantitative relationships between DNA binding and molecular structure for 9-anilinoacridines substituted in the anilino ring” (J Med Chem, 1981).
Activity calls are given as the source filed them. The rule behind the calls is not given here.

Key:
Nucleic Acid [1] = test system: Nucleic Acid
Description: Association constant for binding to poly [d(G-C)]

Nucleic Acid [2] = test system: Nucleic Acid; remark: listed apart in the source
Description: Association constant for binding to poly [d(A-T)]

Calf thymus DNA = conditions: Bos taurus
Description: Inhibitory concentration against ethidium binding to DNA

Description for Mus musculus: Maximum percent increase in life span of mice
Description for physchem: Ionisation constant (pKa)

SMILES | Log K (Nucleic Acid [1]) | pKa (physchem) | ILS (Mus musculus) | Log K (Nucleic Acid [2]) | C50 (Calf thymus DNA)
CN(c1ccccc1Nc1c2ccccc2nc2ccccc12)S(C)(=O)=O | 5.46 | 6.97 | inactive | 5.08 | 37 µM
O=[N+]([O-])c1cccc(Nc2c3ccccc3nc3ccccc23)c1 | 5.62 | 6.26 | inactive | 5.56 | 27 µM
c1cncc(Nc2c3ccccc3nc3ccccc23)c1 | 5.96 | 6.46 | inactive | 5.75 | 13 µM
CC(=O)c1ccc(Nc2c3ccccc3nc3ccccc23)cc1 | 5.89 | 6.12 | inactive | 5.87 | 14 µM
NS(=O)(=O)c1ccccc1Nc1c2ccccc2nc2ccccc12 | 5.77 |  | inactive | 5.67 | 18 µM
Cc1ccc(Nc2c3ccccc3nc3ccccc23)cc1 | 5.99 | 7.72 |  | 5.99 | 10 µM
CCCNc1ccc(Nc2c3ccccc3nc3ccccc23)cc1 | 6.28 | 8.25 | inactive | 6.35 | 2 µM
Nc1ccc(Nc2c3ccccc3nc3ccccc23)cc1 | 6.23 | 8.36 |  | 6.31 | 2.3 µM
COC(=O)c1ccccc1Nc1c2ccccc2nc2ccccc12 | 5.41 | 6.3 | inactive | 5.47 | 40 µM
COC(=O)Nc1ccccc1Nc1c2ccccc2nc2ccccc12 | 5.78 | 7.24 | inactive | 5.56 | 17 µM
COC(=O)Nc1ccc(Nc2c3ccccc3nc3ccccc23)cc1 | 6.23 | 7.64 |  |  | 5.3 µM
Oc1cccc(Nc2c3ccccc3nc3ccccc23)c1 | 6.1 | 7.3 | inactive | 6 | 8.2 µM
Ic1ccccc1Nc1c2ccccc2nc2ccccc12 | 5.27 | 6.47 | inactive | 5.33 | 126 µM
CNC(=O)Nc1ccc(Nc2c3ccccc3nc3ccccc23)cc1 |  | 7.77 |  |  | 4.1 µM
CS(=O)(=O)Nc1ccccc1Nc1c2ccccc2nc2ccccc12 | 6.1 | 6.86 | inactive | 5.49 | 7.3 µM
CC(=O)Nc1ccccc1Nc1c2ccccc2nc2ccccc12 | 5.46 | 7.24 | inactive | 5.84 | 42 µM
COc1ccccc1Nc1c2ccccc2nc2ccccc12 | 5.47 | 7.74 |  | 5.5 | 34 µM
CCCCNc1ccc(Nc2c3ccccc3nc3ccccc23)cc1 | 6.39 | 8.24 | inactive | 6.45 | 1.6 µM
CNS(=O)(=O)c1ccc(Nc2c3ccccc3nc3ccccc23)cc1 | 5.85 | 6.02 | inactive | 5.82 | 16 µM
O=[N+]([O-])c1ccccc1Nc1c2ccccc2nc2ccccc12 | 5.49 |  | inactive | 5.36 | 36 µM

SMILES | Log K (Nucleic Acid [1]) | pKa (physchem) | ILS (Mus musculus) | Log K (Nucleic Acid [2]) | C50 (Calf thymus DNA)
Nc1cccc(Nc2c3ccccc3nc3ccccc23)c1 | 6.01 | 7.58 |  | 6.11 | 8.6 µM
O=S(=O)(Nc1ccc(Nc2c3ccccc3nc3ccccc23)cc1)c1ccccc1 | 6.23 | 7.09 |  | 6.2 | 5.7 µM
Clc1ccccc1Nc1c2ccccc2nc2ccccc12 | 5.47 | 6.55 | inactive | 5.39 | 41 µM
COC(=O)c1ccc(Nc2c3ccccc3nc3ccccc23)cc1 | 5.86 |  |  | 5.88 | 15 µM
NC(=O)c1ccccc1Nc1c2ccccc2nc2ccccc12 | 5.43 |  | inactive | 5.37 | 38 µM
CNc1cccc(Nc2c3ccccc3nc3ccccc23)c1 | 6.01 | 7.61 | inactive | 6.11 | 7 µM
Clc1ccc(Nc2c3ccccc3nc3ccccc23)cc1 | 5.91 | 7.06 | inactive | 5.99 | 14 µM
CS(=O)(=O)Nc1ccc(Nc2c3ccccc3nc3ccccc23)cc1 |  |  |  |  | 8.9 µM
Nc1ccccc1Nc1c2ccccc2nc2ccccc12 | 5.76 | 7.87 | inactive | 5.76 | 13 µM
COc1cccc(Nc2c3ccccc3nc3ccccc23)c1 | 5.91 | 7.21 | inactive | 5.86 | 14 µM
CCCCCCNc1ccc(Nc2c3ccccc3nc3ccccc23)cc1 | 6.38 | 8.24 | inactive | 6.43 | 1.6 µM
Clc1cccc(Nc2c3ccccc3nc3ccccc23)c1 | 6.02 | 6.76 | inactive | 6.02 | 11 µM
CN(c1ccc(Nc2c3ccccc3nc3ccccc23)cc1)S(C)(=O)=O | 6 |  |  | 5.89 | 9.9 µM
Brc1ccc(Nc2c3ccccc3nc3ccccc23)cc1 | 5.98 | 7 | inactive | 6.02 | 11 µM
O=C(Nc1ccc(Nc2c3ccccc3nc3ccccc23)cc1)c1ccccc1 | 6.14 | 7.39 |  | 6.2 | 5.4 µM
Oc1ccc(Nc2c3ccccc3nc3ccccc23)cc1 | 6.21 | 7.91 |  | 6.28 | 5.1 µM
N#Cc1ccc(Nc2c3ccccc3nc3ccccc23)cc1 | 5.86 | 5.93 | inactive | 5.7 | 15 µM
O=[N+]([O-])c1ccc(Nc2c3ccccc3nc3ccccc23)cc1 | 5.69 |  | inactive | 5.48 | 19 µM
Cc1cccc(Nc2c3ccccc3nc3ccccc23)c1 | 5.9 | 7.52 | inactive | 6.09 | 15 µM
Ic1ccc(Nc2c3ccccc3nc3ccccc23)cc1 | 6.13 | 6.9 | inactive | 6.19 | 8.2 µM

SMILES | Log K (Nucleic Acid [1]) | pKa (physchem) | ILS (Mus musculus) | Log K (Nucleic Acid [2]) | C50 (Calf thymus DNA)
CC(=O)Nc1cccc(Nc2c3ccccc3nc3ccccc23)c1 | 5.96 | 7.16 |  | 5.9 | 13 µM
NC(=O)c1ccc(Nc2c3ccccc3nc3ccccc23)cc1 | 5.77 |  | inactive | 5.83 | 18 µM
O=C(Nc1ccccc1)Nc1ccc(Nc2c3ccccc3nc3ccccc23)cc1 | 6.3 | 7.67 |  | 6.37 | 3.8 µM
c1ccc(Nc2c3ccccc3nc3ccccc23)cc1 | 5.85 | 7.46 | inactive | 5.86 | 16 µM
CCOc1ccccc1Nc1c2ccccc2nc2ccccc12 | 5.08 | 7.85 | inactive | 5.2 | 85 µM
Brc1ccccc1Nc1c2ccccc2nc2ccccc12 | 5.32 | 6.41 | inactive | 5.35 | 58 µM
NS(=O)(=O)c1ccc(Nc2c3ccccc3nc3ccccc23)cc1 | 5.92 |  | inactive | 5.96 | 14 µM
CS(=O)(=O)NCc1ccccc1Nc1c2ccccc2nc2ccccc12 | 5.39 | 7.17 | inactive | 5.6 | 46 µM
CCNc1ccc(Nc2c3ccccc3nc3ccccc23)cc1 | 6.36 | 8.3 |  | 6.44 | 1.7 µM
CS(=O)(=O)Nc1cccc(Nc2c3ccccc3nc3ccccc23)c1 | 5.86 |  |  |  | 15 µM
CS(=O)(=O)c1ccc(Nc2c3ccccc3nc3ccccc23)cc1 | 5.88 | 5.81 | inactive | 5.86 | 14 µM
Fc1ccccc1Nc1c2ccccc2nc2ccccc12 | 5.65 | 6.84 | inactive | 5.59 | 27 µM
Nc1ccc(S(=O)(=O)Nc2ccc(Nc3c4ccccc4nc4ccccc34)cc2)cc1 | 6.26 | 7.15 |  | 6.3 | 4.4 µM
CNc1ccc(Nc2c3ccccc3nc3ccccc23)cc1 | 6.54 | 8.42 |  | 6.55 | 1.2 µM
COc1ccc(Nc2c3ccccc3nc3ccccc23)cc1 | 6.08 | 7.94 | inactive | 6.12 | 7.4 µM
CC(=O)Nc1ccc(Nc2c3ccccc3nc3ccccc23)cc1 |  | 7.51 |  |  | 4.7 µM
c1ccc(Nc2c3ccccc3nc3ccccc23)nc1 | 5.43 | 6.32 | inactive | 5.6 | 42 µM
Fc1ccc(Nc2c3ccccc3nc3ccccc23)cc1 | 5.85 | 7.5 | inactive | 5.9 | 16 µM
CN(C)c1ccc(Nc2c3ccccc3nc3ccccc23)cc1 | 6.29 | 8.46 |  | 6.51 | 2 µM
CC(C)c1ccccc1Nc1c2ccccc2nc2ccccc12 | 4.92 | 7.64 | inactive | 5.08 | 142 µM
